Molecules are shown by their SMILES.

This experiment concerns the target T1, human FPRL1 (Homo sapiens, UniProt P25090).
T1 construct: expressed in transfected cells; host or cells: HEK293 (JCRB9068, NIBIO), transient transfection with pCMV-script vectors using Lipofectamine 2000
T1 sequence (P25090 1-351): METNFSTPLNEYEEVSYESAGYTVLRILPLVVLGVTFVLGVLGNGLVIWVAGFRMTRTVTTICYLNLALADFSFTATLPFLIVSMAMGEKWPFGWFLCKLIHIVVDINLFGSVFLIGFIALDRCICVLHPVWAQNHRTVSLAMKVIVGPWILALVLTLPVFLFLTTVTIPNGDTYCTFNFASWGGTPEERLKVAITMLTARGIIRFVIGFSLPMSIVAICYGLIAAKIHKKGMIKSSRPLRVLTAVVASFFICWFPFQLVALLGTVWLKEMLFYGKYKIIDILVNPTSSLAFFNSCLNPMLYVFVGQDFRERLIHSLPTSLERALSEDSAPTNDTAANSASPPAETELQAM
In words: Measurement test of agonist activity on human FPRL1 (test of calcium mobilization in cell, HEK293 with human FPRL1 and Gα15 expression vectors). As to conditions: calcium mobilization in HEK293 cells with human FPRL1 and Gα15 expression vectors. Format: cell-based. The gist of the method:
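HEK293 transiently co-transfected with human FPRL1 and Gα15, plated 24 h before assay, loaded with Fluo-4 NW dye plus probenecid. Compounds in eight 10-fold dilutions (DMSO stocks 10^−2 to 10^−9 M, then diluted 100-fold in assay buffer); calcium mobilization read on Flexstation for EC50.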
(In general: A change in cytosolic calcium serves as a functional read-out for many receptors and channels.)
The term EC50 denotes the concentration that produces a half-maximal response. Consider `O=C(Nc1ccc(Cl)cc1)N[C@H]1C(=O)NC[C@@H]1c1ccccc1` (relative stereo) [Example 1-43, (+)-1-(4-chlorophenyl)-3-[(3R*,4S*)-2-oxo-4-phenylpyrrolidin-3-yl]urea], for which the EC50 was determined as 5.13 nM.

Regarding `CNC(=O)CN1C[C@@H](c2ccc(OC)cc2)[C@H](NC(=O)Nc2ccc(F)cc2)C1=O` (relative stereo) [Example 17-1, (−)-2-{(3S*,4R*)-3-[3-(4-Fluorophenyl)ureido]-4-(4-methoxyphenyl)-2-oxopyrrolidin-1-yl}-N-methylacetamide], the EC50 was 0.11 nM.

For the molecule `CO/N=C1\NC[C@@H](c2ccc(OC)cc2F)[C@@H]1NC(=O)Nc1ccc(F)cc1` (single isomer, unassigned) [EXAMPLE 32-2, (−)-1-[(3S*,4R*,Z)-4-(2-fluoro-4-methoxyphenyl)-2-(methoxyimino)pyrrolidin-3-yl]-3-(4-fluorophenyl)urea], the EC50 was 0.03 nM. Take `CO/N=C1\NC[C@@H](c2c(F)cc(OC)cc2F)[C@@H]1NC(=O)Nc1ccc(C#N)cc1` (single isomer, unassigned) [EXAMPLE 32-9, (−)-1-(4-cyanphenyl)-3-[(3S*,4R*,Z)-4-(2,6-difluoro-4-methoxyphenyl)-2-(methoxyimino)pyrrolidin-3-yl]urea]: the EC50 was found to be 0.3 nM.

For the molecule `COc1cc(F)c([C@@H]2CN(CCO)C(=O)[C@H]2NC(=O)Nc2ccc(Cl)nc2)c(F)c1` (relative stereo) [Example 24-9, (−)-1-(6-chloropyridin-3-yl)-3-[(3S*,4R*)-4-(2,6-difluoro-4-methoxyphenyl)-1-(2-hydroxyethyl)-2-oxopyrrolidin-3-yl]urea], the EC50 worked out at 0.88 nM.

With `COc1ccc([C@@H]2CNC(=O)[C@H]2NC(=O)Nc2ccc(F)cc2)c(C)c1` (single isomer, unassigned) [EXAMPLE 1-11, (−)-1-(4-fluorophenyl)-3-[(3S*,4R*)-4-(4-methoxy-2-methylphenyl)-2-oxopyrrolidin-3-yl]urea], the EC50 was 1.59 nM.

For the molecule `COc1ccc([C@@H]2CN(C(C)C(=O)O)C(=O)[C@H]2NC(=O)Nc2ccc(F)cc2)cc1` (single isomer, unassigned; isomer a) [Example 18-1, (−)-2-{(3S*,4R*)-3-[3-(4-Fluorophenyl)ureido]-4-(4-methoxyphenyl)-2-oxopyrrolidin-1-yl}propionic acid (isomer A)], the EC50 is 2.36 nM.

In the case of `COc1cc(F)c([C@@H]2CNC(=O)[C@H]2NC(=O)Nc2cc3ccccc3s2)c(F)c1` (relative stereo) [Example 1-35, (−)-1-(benzo[b]thiophen-2-yl)-3-[(3S*,4R*)-4-(2,6-difluoro-4-methoxyphenyl)-2-oxopyrrolidin-3-yl]urea], the EC50 came to 0.76 nM. Under `NC(=O)c1cc(F)c([C@@H]2CNC(=O)[C@H]2NC(=O)Nc2ccc(F)cc2)c(F)c1` (single isomer, unassigned) [EXAMPLE 31-1, (−)-3,5-Difluoro-4-{(3R*,4S*)-4-[3-(4-fluorophenyl)ureido]-5-oxopyrrolidin-3-yl}benzamide] stands 1.94 nM; under `COc1cc(F)c([C@@H]2CN(CCO)C(=O)[C@H]2NC(=O)Nc2ccc(C#N)cc2)c(F)c1` (relative stereo) [Example 24-8, (−)-1-(4-cyanophenyl)-3-[(3S*,4R*)-4-(2,6-difluoro-4-methoxyphenyl)-1-(2-hydroxyethyl)-2-oxopyrrolidin-3-yl]urea], 0.39 nM; under `COc1ccc([C@@H]2[C@H](C)NC(=O)[C@H]2NC(=O)Nc2ccc(F)cc2)cc1` (relative stereo) [Example 1-40, (−)-1-(4-fluorophenyl)-3-[(3S*,4R*,5S*)-4-(4-methoxyphenyl)-5-methyl-2-oxopyrrolidin-3-yl]urea], 1.44 nM. Consider `CCc1ccc(NC(=O)N[C@@H]2C(=O)NC[C@H]2c2c(F)cc(OC)cc2F)cc1` (relative stereo) [Example 7-10, (−)-1-[(3S*,4R*)-4-(2,6-difluoro-4-methoxyphenyl)-2-oxopyrrolidin-3-yl]-3-(4-ethylphenyl)urea], for which the EC50 is 2.31 nM.

Source of the values: patent US9822069B2, “Urea derivative or pharmacologically acceptable salt thereof” (KYORIN PHARMACEUTICAL CO. LTD., priority 2013, dated 2017).
